Values joined by “and” are separate entries in the source; they are usually repeats but may differ in a detail not shown here. Equal values may be shown once. Marks after values point to notes of the source that are not given here.
Assays:
[1] = system: Japanese subjects with type 2 diabetes; test: 28-day single-blind placebo-controlled study in Japanese subjects: pharmacodynamics (FPG, AUC0-4 glucose, A1C); assay type: in vivo, human
type 2 diabetic subjects [2] = test: Phase 2 randomized, placebo-controlled 16-week trial of weekly, biweekly and monthly albiglutide: glycemic efficacy (A1C, FPG, weight); assay type: in vivo, human; settings: for A1C change from baseline (mean) / FPG change from baseline (mean) / Subjects achieving A1C < 7.0% / A1C reduction compared with placebo (ANCOVA model) / FPG change from baseline compared with placebo: week 16; for FPG reduction in background metformin (MET) subjects: after 16 weeks; for Weight loss: across albiglutide groups
Text: Main outcome measure was change from baseline A1C, week 16 vs placebo.
Men and women of non-childbearing potential from 18-75 years of age were eligible for inclusion if diagnosed with type 2 diabetes ≧3 months before screening. Subjects were drug-naïve (diet & exercise) or treated with diet and exercise plus metformin as monotherapy stable for >3 months before prescreening (1 week prior to screening visit). […] Additional inclusion criteria included: BMI≧20 and ≦40 kg/m^2 and A1C at screening ≧7% and ≦10%.
A1C and fasting plasma glucose (FPG) measurements were performed at Screening, Baseline, and at Weeks 2 (FPG Only), 4, 5, 7, 8, 9, 12, 15, and 16.
The primary efficacy endpoint was change from baseline A1C at week 16 vs placebo across different doses within each schedule (weekly, biweekly, and monthly). The primary analysis was an ANCOVA model with main effects for treatment group and prior metformin therapy, adjusting for baseline A1C. Dose response was evaluated using contrasts within the ANCOVA model framework. Pairwise comparisons were performed in the same ANCOVA model. Secondary endpoints were analyzed similarly. Responder analysis and incidence of hypoglycemia were summarized by group statistics. […] Safety and tolerability data were collected categorically.
(§1) Comparisons were made on the intent-to-treat population, defined as all randomly assigned subjects with at least one post-baseline assessment of the primary endpoint, using last-observation carried forward. The safety population included all randomized patients who received at least one dose of any medication after being randomized. An interim analysis was conducted at 8 weeks for administrative purposes by an independent statistical analysis group; blinding was retained for study investigators and study personnel with daily operational responsibility.
Patients were also assessed for reduction in fasting plasma glucose (FPG) and HbA1c reduction based on background metformin (MET) treatment.

[3] = 28-day study in Japanese subjects: pharmacokinetics; assay type: in vivo, human; settings: sc abdomen
Method: (§2) In the 100 mg monthly group, most common AEs were flatulence (n=3, 38%), vomiting (n=3, 38%) and nausea (n=2, 25%).

[4] = Baggio, et al. Diabetes 53:2492-2500, 2004; cited from earlier work
[5] = system: Japanese subjects with type 2 diabetes; test: 28-day study in Japanese subjects: safety/tolerability; assay type: in vivo, human
Method: as §2

[6] = Phase 2 trial: pharmacokinetics of albiglutide (plasma ELISA, population PK with NONMEM); assay type: in vivo, human
Method: (§3) Adverse event assessments and safety analyses (including electrocardiograms, vital sign measurements and physical exams) were conducted throughout the study. Nausea and vomiting were monitored for occurrence and duration. Immunogenicity assessments were performed with samples taken at baseline and at weeks 1, 4, 8, and 12, and 16. Samples were screened for anti-albiglutide antibodies via ELISA (Matthews, et al. J Clin Endocrinol Metab. 2008; DOI: 10.1210/jc.2008-1518). […] Population PK analysis was performed using a nonlinear mixed-effect modelling approach with NONMEM software (Icon Development Solutions, Ellicott City, Md.).

type 2 diabetic subjects [7] = system: type 2 diabetic subjects; set-up: species or system human; settings: in vivo
Method: Adverse event assessments and safety analyses (including electrocardiograms, vital sign measurements and physical exams) were conducted throughout the study. Nausea and vomiting were monitored for occurrence and duration. Immunogenicity assessments were performed with samples taken at baseline and at weeks 1, 4, 8, and 12, and 16. […] Population PK analysis was performed using a nonlinear mixed-effect modelling approach with NONMEM software (Icon Development Solutions, Ellicott City, Md.).
as §1
Gastrointestinal (GI) adverse events may limit adherence to GLP-1 therapies.

[8] = system: anti-albiglutide antibodies; test: Phase 2 trial: immunogenicity, anti-albiglutide antibodies via ELISA; assay type: in vivo, human
Method: as §3
An 11-week post-treatment washout period was included to monitor development of anti-albiglutide antibodies. […] The appearance of anti-albiglutide antibodies was largely transient, with 1 subject remaining positive at week 27. […] There was no obvious association between presence of anti-albiglutide antibodies and either efficacy or safety.

[9] = 30 mg weekly sc, listed as albiglutide
[10] = 50 mg biweekly sc, listed as ALB
[11] = 50 mg biweekly sc, listed as albiglutide
[12] = 100 mg monthly sc, listed as ALB
[13] = 100 mg monthly sc, listed as albiglutide

Albiglutide: Long-acting GLP-1 receptor agonist: two DPP-4-resistant human GLP-1 analogs (GLP-1(7-36)(A8G)) fused to human albumin; SEQ ID NO:1
A1C, PBO-adjusted change from baseline (LS Means Difference) ([1]; 15 mg weekly, day 29): −0.58*/ % | FPG, PBO-adjusted change from baseline (LS Means Difference) ([1]; 15 mg weekly, day 29): −34.5* mg/dL | A1C, PBO-adjusted change from baseline (LS Means Difference) ([1]; 15 mg weekly, day 43): −0.87* % | A1C, PBO-adjusted change from baseline (LS Means Difference) ([1]; 30 mg weekly, day 29): −0.57*/ % | FPG, PBO-adjusted change from baseline (LS Means Difference) ([1]; 30 mg weekly, day 29): −35.6* mg/dL | A1C, PBO-adjusted change from baseline (LS Means Difference) ([1]; 30 mg weekly, day 43): −0.78* % | A1C, PBO-adjusted change from baseline (LS Means Difference) ([1]; 50 mg biweekly, day 29): −0.63*/ % | FPG, PBO-adjusted change from baseline (LS Means Difference) ([1]; 50 mg biweekly, day 29): −31.3* mg/dL | A1C, PBO-adjusted change from baseline (LS Means Difference) ([1]; 50 mg biweekly, day 43): −0.79* % | A1C, PBO-adjusted change from baseline (LS Means Difference) ([1]; 100 mg monthly, day 29): −0.51*/ % | FPG, PBO-adjusted change from baseline (LS Means Difference) ([1]; 100 mg monthly, day 29): -13.2 mg/dL | A1C, PBO-adjusted change from baseline (LS Means Difference) ([1]; 100 mg monthly, day 43): −0.59* % | Onset of improvement of FPG and weighted mean AUC0-4 glucose ([1]; Japanese subjects): improved as early as day 3 | A1C change from baseline (mean) (type 2 diabetic subjects [2]; 4 mg weekly sc): −0.11% | FPG change from baseline (mean) (type 2 diabetic subjects [2]; 4 mg weekly sc): -0.47 ± 3.1 mmol/L | Subjects achieving A1C < 7.0% (type 2 diabetic subjects [2]; 4 mg weekly sc): 17.6% | A1C change from baseline (mean) (type 2 diabetic subjects [2]; 4 mg weekly sc, listed as ALB): −0.1 ± 1.2% | A1C change from baseline (mean) (type 2 diabetic subjects [2]; 15 mg biweekly sc): −0.56% | FPG change from baseline (mean) (type 2 diabetic subjects [2]; 15 mg biweekly sc): -1.28 ± 2.4 mmol/L | Subjects achieving A1C < 7.0% (type 2 diabetic subjects [2]; 15 mg biweekly sc): 26.7% | A1C change from baseline (mean) (type 2 diabetic subjects [2]; 15 mg biweekly sc, listed as ALB): −0.6 ± 1.0% | A1C change from baseline (mean) (type 2 diabetic subjects [2]; 15 mg weekly sc): −0.49% | FPG change from baseline (mean) (type 2 diabetic subjects [2]; 15 mg weekly sc): -0.72 ± 1.7 mmol/L | A1C change from baseline (mean) (type 2 diabetic subjects [2]; 15 mg weekly sc, listed as ALB): −0.5 ± 0.7% | A1C change from baseline (mean) (type 2 diabetic subjects [2]; 30 mg biweekly sc): −0.79 ± % | FPG change from baseline (mean) (type 2 diabetic subjects [2]; 30 mg biweekly sc): -1.58 ± 2.1 mmol/L | Subjects achieving A1C < 7.0% (type 2 diabetic subjects [2]; 30 mg biweekly sc): 50.0% | A1C change from baseline (mean) (type 2 diabetic subjects [2]; 30 mg biweekly sc, listed as ALB): −0.8 ± 1.0 % | MET patients achieving HbA1c <7% (type 2 diabetic subjects [2]; 30 mg weekly): 43% | A1C change from baseline (mean) (type 2 diabetic subjects [2]; 30 mg weekly sc): −0.87 ± % | A1C change from baseline (mean) (type 2 diabetic subjects [2]; 30 mg weekly sc, listed as ALB): −0.9 ± 0.7 % | FPG change from baseline (mean) (type 2 diabetic subjects [2]; 30 mg weekly sc, listed as ALB): -1.44 ± 2.0 mmol/L | Subjects achieving A1C < 7.0% (type 2 diabetic subjects [2]; 30 mg weekly sc, listed as ALB): 51.7% | A1C change from baseline (mean) (type 2 diabetic subjects [2]; [9]): −0.87% and −0.9% | FPG change from baseline (mean) (type 2 diabetic subjects [2]; [9]): -1.44 mmol/L | Subjects achieving A1C < 7.0% (type 2 diabetic subjects [2]; [9]): 52% | HbA1c reduction in MET subjects (type 2 diabetic subjects [2]; 30 mg weekly, 16 weeks): −0.78% | FPG reduction in background metformin (MET) subjects (type 2 diabetic subjects [2]; 30 mg weekly): -1.26 mmol/L | A1C reduction compared with placebo (ANCOVA model) (type 2 diabetic subjects [2]; 30 mg weekly): −0.62% | FPG change from baseline compared with placebo (type 2 diabetic subjects [2]; 30 mg weekly): -1.38 mmol/L | MET patients achieving HbA1c <7% (type 2 diabetic subjects [2]; 50 mg biweekly): 50% | A1C change from baseline (mean) (type 2 diabetic subjects [2]; 50 mg biweekly sc): −0.79 ± % | A1C change from baseline (mean) (type 2 diabetic subjects [2]; [10]): −0.8 ± 1.0 % | FPG change from baseline (mean) (type 2 diabetic subjects [2]; [10]): -1.32 ± 3.5 mmol/L | Subjects achieving A1C < 7.0% (type 2 diabetic subjects [2]; [10]): 52.9% | A1C change from baseline (mean) (type 2 diabetic subjects [2]; [11]): −0.79% and −0.8% | FPG change from baseline (mean) (type 2 diabetic subjects [2]; [11]): -1.32 mmol/L | Subjects achieving A1C < 7.0% (type 2 diabetic subjects [2]; [11]): 53% | HbA1c reduction in MET subjects (type 2 diabetic subjects [2]; 50 mg biweekly, 16 weeks): −0.83% | FPG reduction in background metformin (MET) subjects (type 2 diabetic subjects [2]; 50 mg biweekly): -2.10 mmol/L | A1C reduction compared with placebo (ANCOVA model) (type 2 diabetic subjects [2]; 50 mg biweekly): −0.57% | FPG change from baseline compared with placebo (type 2 diabetic subjects [2]; 50 mg biweekly): -1.16 mmol/L | A1C change from baseline (mean) (type 2 diabetic subjects [2]; 50 mg monthly sc): −0.55% | FPG change from baseline (mean) (type 2 diabetic subjects [2]; 50 mg monthly sc): -0.72 ± 2.8 mmol/L | Subjects achieving A1C < 7.0% (type 2 diabetic subjects [2]; 50 mg monthly sc): 22.9% | A1C change from baseline (mean) (type 2 diabetic subjects [2]; 50 mg monthly sc, listed as ALB): −0.6 ± 1.0% | MET patients achieving HbA1c <7% (type 2 diabetic subjects [2]; 100 mg monthly): 46% | A1C change from baseline (mean) (type 2 diabetic subjects [2]; 100 mg monthly sc): −0.87 ± % | A1C change from baseline (mean) (type 2 diabetic subjects [2]; [12]): −0.9 ± 0.9 % | FPG change from baseline (mean) (type 2 diabetic subjects [2]; [12]): -1.22 ± 3.5 mmol/L | Subjects achieving A1C < 7.0% (type 2 diabetic subjects [2]; [12]): 48.4% | A1C change from baseline (mean) (type 2 diabetic subjects [2]; [13]): −0.87% and −0.9% | FPG change from baseline (mean) (type 2 diabetic subjects [2]; [13]): -1.22 mmol/L | Subjects achieving A1C < 7.0% (type 2 diabetic subjects [2]; [13]): 48% | HbA1c reduction in MET subjects (type 2 diabetic subjects [2]; 100 mg monthly, 16 weeks): −0.77% | FPG reduction in background metformin (MET) subjects (type 2 diabetic subjects [2]; 100 mg monthly): -1.80 mmol/L | A1C reduction compared with placebo (ANCOVA model) (type 2 diabetic subjects [2]; 100 mg monthly): −0.60% | FPG change from baseline compared with placebo (type 2 diabetic subjects [2]; 100 mg monthly): -1.17 mmol/L | Mean systolic and diastolic blood pressure (type 2 diabetic subjects [2]; 16-week trial): tended to reduce | Plasma lipoprotein profile (type 2 diabetic subjects [2]; 16-week trial): did not significantly change | Weight loss (type 2 diabetic subjects [2]; MET group, 16 weeks): −0.4 to −2.1 kg | Average weight loss (type 2 diabetic subjects [2]; highest dose regimens in each timing schedule, 16 weeks): −1.1 to −1.7 kg | A1C reduction from a mean baseline A1C of 8.0% (type 2 diabetic subjects [2]; maximum doses of each schedule (30 mg weekly, 50 mg biweekly, 100 mg monthly)): 0.8-0.9% | Weight loss (type 2 diabetic subjects [2]; overall population, 16 weeks): −0.9 to −1.8 kg | β-cell function (assessed by HOMA-B) (type 2 diabetic subjects [2]; subjects receiving albiglutide): Small improvements | CL/F [3]: 68.7 mL/h | Plasma t1/2 [3]: 127 h | V/F [3]: 12.6 L | Permeability to the central nervous system [4]: relatively impermeant | Nausea (AE incidence) ([5]; 100 mg monthly group, n=2): 25% | Flatulence (AE incidence) ([5]; 100 mg monthly group, n=3): 38% | Vomiting (AE incidence) ([5]; 100 mg monthly group, n=3): 38% | Serious AEs ([5]; all doses, 28 days): No serious AEs | Tolerability ([5]; all doses, 28 days): generally well-tolerated | Steady state achieved after ([6]; 30 mg weekly): 4-5 doses | Tmax ([6]; albiglutide sc): ~72 h | Half-life ([6]; sc, type 2 diabetic subjects): ~120 h | Time to steady state levels after the first dose ([6]; sc, type 2 diabetic subjects): 4-5 weeks | Half-life ([6]; sc, type 2 diabetic subjects, listed as SEQ ID NO:1): about 5 days | Documented hypoglycemia (type 2 diabetic subjects [7]): 0-3.1% | Documented hypoglycemia (in words) (type 2 diabetic subjects [7]): not increased | Injection site local skin reactions (type 2 diabetic subjects [7]): 2.9-28.2% | Subjects positive for anti-albiglutide antibodies ([8]; 8 subjects in placebo and albiglutide arms, incl. 1 on placebo and 2 positive at baseline, through week 27): 2.5% | Character of anti-albiglutide antibodies ([8]; antibody-positive subjects): non-neutralizing, low-titer
